Measurements: patent publication US7858322B2, “Method of determining inhibition of binding to TRPM7 protein” (NoNo, Inc., priority 2003, dated 2010)
Residues, ends and D or L forms follow the SMILES beside them. No end group written: not given here. *: point of attachment. Biotin = O=C1N[C@H]2[C@H](CS[C@H]2CCCCC(=O)*)N1

Key:
INADL d3 [1] = biological target: T1, INADL d3 (Homo sapiens, UniProt Q8NI35); test: G3 assay, binding of biotinylated peptide to GST-PDZ fusion; settings: G3 titration
T1 construct: made in house; host or cells: E. coli (DH5α, BL21 or JM109)
T1 sequence (Q8NI35 with tags, fused parts or gaps): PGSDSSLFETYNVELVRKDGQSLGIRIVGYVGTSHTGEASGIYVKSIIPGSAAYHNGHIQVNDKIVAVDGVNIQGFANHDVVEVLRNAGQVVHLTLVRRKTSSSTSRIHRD
Method: (§1) The G3 assay is identical to the G0 assay with the following exceptions. The peptides are typically present at 0.1 μM rather than 20 μM. The peptides are also pre-incubated with the HRP-streptavidin prior to adding to the assay plate. In the G0 assay, free peptide is incubated with the PDZ proteins prior to the addition of the HRP-streptavidin. Thus, for the G0 assay one can lose signal if the bound peptide dissociates from the PDZ protein prior to the addition of the HRP-streptavidin. In the G3 modified assay the HRP-streptavidin/peptide complex is added to the plate in one step, thus increasing the likelihood that all the bound peptide will be bound to HRP-streptavidin. The G3 modified assay increases the chance of observing weak interaactions.
(§2) Reagents and Supplies • Nunc MaxiSorp 96 well Immuno-plate, Nunc • PBS pH 7.4 (phosphate buffered saline, 8 g NaCl, 0.29 g KCl, 1.44 g Na2HPO4, 0.24 g KH2PO4, add H2O to 1 liter and pH 7.4; 0.2 μm filter) • Assay Buffer: 2% BSA in PBS (20 g of bovine serum albumin per liter PBS, fraction V, ICN Biomedicals, cat#IC15142983 • Goat anti-GST polyclonal Ab, stock 5 mg/ml, stored at 4° C., Amersham Pharmacia cat#27-4577-01 • Dilute 1:1000 in PBS, final concentration 5 μg/ml. • HRP-Streptavidin, 2.5 mg/2 ml stock stored at 4° C., Zymed cat#43-4323, dilute 1:2000 into Assay buffer, final concentration of 0.5 μg/ml • Wash Buffer, PBS • Biotinylated peptides (HPLC purified, stock solution stored in −20° C. freezer) • GST-PRISM proteins (stock stored at −80° C., after 1st thaw store in −10° C. freezer) • TMB (3,3′,5,5′, teramethylbensidine), tablets, Sigma cat.#T5525 • Per plate, dissolve 1 tablet in 1 ml DMSO, add 9 ml Citrate/Phosphate buffer pH 5.4 and 2 μL H2O2 • 0.18M H2SO4, Sigma cat.#S 1526 • 12-w multichannel pipettor & tips • 50 ml reagent reservoirs, Costar#4870 • 50, 15 ml polypropylene conical tubes • Costar Transtar 96 Costar #7605 • Transtar 96 Cartridge Costar #7610 • Molecular Devices microplate reader (450 & 650 nm filters) with SoftMax Pro software • When using reagents stored at or 4° C. or −20° C., remove & keep on ice
(§3) Protocol • 1. Coat plate with 100 μl of 5 μg/ml anti-GST, overnight at 4° C. • 2. Dump contents of plate & out tap dry on paper towels • 3. Block with 200 μl Assay Buffer for 2 hrs at room temperature • 4. Prepare proteins at 5 μg/ml in Assay Buffer • 5. Wash 3× with cold PBS (4° C.), avoiding letting the plates dry out • 6. Add proteins at 50 μl per well, incubate 1 to 2 hrs at 4° C. • 7. Prepare peptides to desired concentration in Assay Buffer • 8. Wash 3× with cold PBS (4° C.), avoiding letting the plates dry out • 9. Add HRP-Streptavidin/peptide complex [prepared by incubating for 20 minutes at room temperature HRP-Streptavidin (1:2000) with the desired biotin-peptide concentration for 20 minutes at room temperature] at 50 μl per well on ice • 10. Place at room temperature for exactly 30 minutes • 11. Promptly wash 5× with PBS at room temperature • 12. Add 100 μl/well TMB substrate (write time on plate) • 13. Incubate in dark at room temperature for a maximum of 30 minutes • 14. Read plate at 25 minutes (650 nm), optional • 15. Stop reaction with 100 μl of 0.18 M H2SO4, 30 minutes after adding TMB Take last reading at 450 nm soon after stopping reaction
(§4) The G3 assay was performed using 0.1 μM peptide representing 11 amino acids of Tat fused to the final 9 amino acids of TRPM7 ([…]; SEQ ID NO:258).
(§5) The G3 assay was performed on a subset of the PDZ domains as in Example II except that the concentration of peptide was 0.002 μM, […], 0.1 μM, 0.2 μM, 1 μM, and 2 μM.
(§6) to calculate the EC50 for the binding of the peptides to the PDZ domains.
(§7) FIGS. 10A and 10B show graphs of the titrations for the Peptide #1829 with ZO-1 d2 and for the Peptide #1839 with INADL d3.

RIM2 d1 = biological target: T2, RIM2 d1 (Homo sapiens, UniProt Q9UQ26); test: G assays, titrations or binding assays of peptides; settings: peptide demonstrated to bind RIM2 d1 in G assays
T2 construct: made in house; host or cells: E. coli (DH5α, BL21 or JM109)
T2 sequence (Q9UQ26 632-757): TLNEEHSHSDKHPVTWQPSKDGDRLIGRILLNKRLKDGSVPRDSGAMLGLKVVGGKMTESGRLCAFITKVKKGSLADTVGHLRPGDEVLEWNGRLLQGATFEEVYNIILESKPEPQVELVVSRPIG
Method: (§8) In one aspect, the invention provides an assay in which a GST/PDZ fusion protein is immobilized on a surface (G assay). […] In a preferred embodiment, the assay is carried out as follows:
(§9) (1) A PDZ-domain polypeptide is bound to a surface, e.g. a protein binding surface. In a preferred embodiment, a GST/PDZ fusion protein containing one or more PDZ domains is bound to a polystyrene 96-well plate. […] In one embodiment, the GST/PDZ fusion protein is bound via an anti-GST antibody that is coated onto the 96-well plate. Adequate binding to the plate can be achieved when: • a. 100 μl per well of 5 μg/ml goat anti-GST polyclonal antibody (Pierce) in PBS is added to a polystyrene 96-well plate (e.g., Nunc Polysorp) at 4° C. for 12 hours. • b. The plate is blocked by addition of 200 μl per well of PBS/BSA for 2 hours at 4° C. • c. The plate is washed 3 times with PBS. • d. 50 μl per well of 5 μg/ml GST/PDZ fusion protein) or, as a negative control, GST polypeptide alone (i.e. not a fusion protein) in PBS/BSA is added to the plate for 2 hours at 4° C. • e. the plate is again washed 3 times with PBS.
(§10) (2) Biotinylated PL peptides are allowed to react with the surface by addition of 50 μl per well of 20 μM solution of the biotinylated peptide in PBS/BSA for 10 minutes at 4° C., followed by an additional 20 minute incubation at 25° C. The plate is washed 3 times with ice cold PBS.
(§11) (3) The binding of the biotinylated peptide to the GST/PDZ fusion protein surface can be detected using a variety of methods and detectors known to one of skill in the art. In one embodiment, 100 μl per well of 0.5 μg/ml streptavidin-horseradish peroxidase (HRP) conjugate dissolved in BSA/PBS is added and allowed to react for 20 minutes at 4° C. The plate is then washed 5 times with 50 mM Tris pH 8.0 containing 0.2% Tween 20, and developed by addition of 100 μl per well of HRP-substrate solution (TMB, Dako) for 20 minutes at room temperature (RT). The reaction of the HRP and its substrate is terminated by addition of 100 μl per well of 1 M sulfuric acid, and the optical density (O.D.) of each well of the plate is read at 450 um.
(§12) (4) Specific binding of a PL peptide and a PDZ domain polypeptide is determined by comparing the signal from the well(s) in which the PL peptide and PDZ domain polypeptide are combined, with the background signal(s). […] Typically a specific or selective reaction will be at least twice background signal, more typically more than 5 times background, and most typically 10 or more times the background signal. […] Correspondingly, a statistical test (e.g. a T-test) comparing repeated measurements of the signal with repeated measurements of the background will result in a p-value <0.05, more typically a p-value <0.01, and most typically a p-value <0.001 or less. As noted, in an embodiment of the G assay, the signal from binding of a given PL peptide to immobilized (surface bound) GST polypeptide alone is one suitable negative control (sometimes referred to as B1). Because all measurement are done in multiples (i.e. at least duplicate) the arithmetic mean (or, equivalently, average.) of several measurements is used in determining the binding, and the standard error of the mean is used in determining the probable error in the measurement of the binding. The standard error of the mean of N measurements equals the square root of the following: the sum of the squares of the difference between each measurement and the mean, divided by the product of (N) and (N−1). Thus, in one embodiment, specific binding of the PDZ protein to the platebound peptide is determined by comparing the mean signal (“mean S”) and standard error of the signal (“SE”) for a particular PL-PDZ combination with the mean B1.

[2] = test system: cultured cortical neurons; test: Oxygen glucose deprivation (OGD) neuronal cell death; type: cell-based; settings: FIG. 7
Method: The fraction of dead cells was determining by dividing the number of neurons expressing GFP which became stained with propidium iodide 20 h after OGD by the number of neurons expressing GFP at the beginning of the experiment. Data for each culture was obtained from counting cells in 3 high power microscope fields per experiment.

ZO-1 d2 [3] = biological target: T3, ZO-1 d2 (Homo sapiens, UniProt Q07157, DEL264-264); test: G3 assay, binding of biotinylated peptide to GST-PDZ fusion; settings: G3 titration
T3 construct: made in house; host or cells: E. coli (DH5α, BL21 or JM109)
T3 sequence (Q07157 with tags, fused parts or gaps DEL264-264): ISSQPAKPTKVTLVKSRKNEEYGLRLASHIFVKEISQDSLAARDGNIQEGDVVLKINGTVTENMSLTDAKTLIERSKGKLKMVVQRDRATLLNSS
Method: as §1, §2, §3, §4, §5, §6, §7

ZO-1 d2 [4] = biological target: T3, ZO-1 d2; test: G assays, titrations or binding assays of peptides; settings: peptide demonstrated to bind ZO-1 d2 in G assays
Method: as §8, §9, §10, §11, §12

INADL d3 [5] = biological target: T1, INADL d3; test: G assays, titrations or binding assays of peptides; settings: peptide demonstrated to bind INADL d3 in G assays
Method: as §8, §9, §10, §11, §12

Biotin-YGRKKRRQRRRSRTDRLEYV [Peptide 1846]
ODmax (450 nm) (INADL d3 [1]): 1.50
POZ domain bound (RIM2 d1): RIM2 D1

[Gd+3] [Gd^3+]
Survival of neurons in prolonged OGD [2]: can permit survival of neurons destined to die from prolonged OGD

CC[C@H](C)[C@H](NC(=O)[C@H](CC(C)C)NC(=O)[C@H](CCCNC(=N)N)NC(=O)[C@H](CCCNC(=N)N)NC(=O)[C@H](CCC(=O)O)NC(=O)[C@H](CC(=O)O)NC(=O)[C@H](CCC(N)=O)NC(=O)[C@H](CCCNC(=N)N)NC(=O)[C@H](CCCNC(=N)N)NC(=O)[C@H](CCCNC(=N)N)NC(=O)[C@H](CCC(N)=O)NC(=O)[C@H](CCCNC(=N)N)NC(=O)[C@H](CCCNC(=N)N)NC(=O)[C@H](CCCCN)NC(=O)[C@H](CCCCN)NC(=O)[C@H](CCCNC(=N)N)NC(=O)CNC(=O)[C@H](Cc1ccc(O)cc1)NC(=O)CCCC[C@@H]1SC[C@@H]2NC(=O)N[C@@H]21)C(=O)N[C@H](C(=O)N[C@@H](CC(C)C)C(=O)O)C(C)C [Peptide 1842] (Biotin-YGRKKRRQRRRQDERRLIVL-OH)
ODmax (450 nm) (INADL d3 [1]): 1.90
ODmax (450 nm) (ZO-1 d2 [3]): 2.30
POZ domain bound (RIM2 d1): RIM2 D1
POZ domain bound (ZO-1 d2 [4]): ZO-1 D2

CC[C@H](C)[C@H](NC(=O)[C@@H](NC(=O)[C@H](CCCNC(=N)N)NC(=O)[C@H](CC(=O)O)NC(=O)[C@H](CO)NC(=O)[C@H](CCCNC(=N)N)NC(=O)[C@H](C)NC(=O)[C@H](CCCNC(=N)N)NC(=O)[C@H](CCCNC(=N)N)NC(=O)[C@H](CCCNC(=N)N)NC(=O)[C@H](CCC(N)=O)NC(=O)[C@H](CCCNC(=N)N)NC(=O)[C@H](CCCNC(=N)N)NC(=O)[C@H](CCCCN)NC(=O)[C@H](CCCCN)NC(=O)[C@H](CCCNC(=N)N)NC(=O)CNC(=O)[C@H](Cc1ccc(O)cc1)NC(=O)CCCC[C@@H]1SC[C@@H]2NC(=O)N[C@@H]21)[C@@H](C)O)C(=O)N[C@@H](Cc1c[nH]c2ccccc12)C(=O)N[C@@H](C)C(=O)O [Peptide 1829] (Biotin-YGRKKRRQRRRARSDRTIWA-OH; C-terminus assumed)
ODmax (450 nm) (INADL d3 [1]): 1.40
ODmax (450 nm) (ZO-1 d2 [3]): 2.90
POZ domain bound (INADL d3 [5]): INADL D3
POZ domain bound (RIM2 d1): RIM2 D1
POZ domain bound (ZO-1 d2 [4]): ZO-1 D2

CC(C)C[C@H](NC(=O)[C@H](CO)NC(=O)[C@@H](NC(=O)[C@H](CC(C)C)NC(=O)[C@H](CCCNC(=N)N)NC(=O)[C@H](CC(=O)O)NC(=O)CNC(=O)[C@H](CCCNC(=N)N)NC(=O)[C@H](C)NC(=O)[C@H](CCCNC(=N)N)NC(=O)[C@H](CCCNC(=N)N)NC(=O)[C@H](CCCNC(=N)N)NC(=O)[C@H](CCC(N)=O)NC(=O)[C@H](CCCNC(=N)N)NC(=O)[C@H](CCCNC(=N)N)NC(=O)[C@H](CCCCN)NC(=O)[C@H](CCCCN)NC(=O)[C@H](CCCNC(=N)N)NC(=O)CNC(=O)[C@H](Cc1ccc(O)cc1)NC(=O)CCCC[C@@H]1SC[C@@H]2NC(=O)N[C@@H]21)C(C)C)C(=O)O [Peptide 1843] (Biotin-YGRKKRRQRRRARGDRLVSL-OH; C-terminus assumed)
ODmax (450 nm) (INADL d3 [1]): 1.20
ODmax (450 nm) (ZO-1 d2 [3]): 2.20
POZ domain bound (RIM2 d1): RIM2 D1
POZ domain bound (ZO-1 d2 [4]): ZO-1 D2

CC(C)[C@H](NC(=O)[C@H](Cc1ccc(O)cc1)NC(=O)[C@H](Cc1ccc(O)cc1)NC(=O)[C@H](CCC(=O)O)NC(=O)[C@H](CCCCN)NC(=O)[C@H](CC(=O)O)NC(=O)[C@H](CCCCN)NC(=O)[C@H](CC(N)=O)NC(=O)[C@H](CCCCN)NC(=O)[C@H](CCCNC(=N)N)NC(=O)[C@H](CCCNC(=N)N)NC(=O)[C@H](CCCNC(=N)N)NC(=O)[C@H](CCC(N)=O)NC(=O)[C@H](CCCNC(=N)N)NC(=O)[C@H](CCCNC(=N)N)NC(=O)[C@H](CCCCN)NC(=O)[C@H](CCCCN)NC(=O)[C@H](CCCNC(=N)N)NC(=O)CNC(=O)[C@H](Cc1ccc(O)cc1)NC(=O)CCCC[C@@H]1SC[C@@H]2NC(=O)N[C@@H]21)C(=O)O [Peptide 1852] (Biotin-YGRKKRRQRRRKNKDKEYYV-OH; C-terminus assumed)
ODmax (450 nm) (INADL d3 [1]): 2.40
ODmax (450 nm) (ZO-1 d2 [3]): 2.60
POZ domain bound (RIM2 d1): RIM2 D1
POZ domain bound (ZO-1 d2 [4]): ZO-1 D2

CC[C@H](C)[C@H](NC(=O)[C@H](CCC(N)=O)NC(=O)[C@H](Cc1ccc(O)cc1)NC(=O)[C@H](CCCCN)NC(=O)[C@H](CCCNC(=N)N)NC(=O)[C@H](CC(=O)O)NC(=O)[C@@H](NC(=O)[C@H](CCCNC(=N)N)NC(=O)[C@H](CO)NC(=O)[C@H](CCCNC(=N)N)NC(=O)[C@H](CCCNC(=N)N)NC(=O)[C@H](CCCNC(=N)N)NC(=O)[C@H](CCC(N)=O)NC(=O)[C@H](CCCNC(=N)N)NC(=O)[C@H](CCCNC(=N)N)NC(=O)[C@H](CCCCN)NC(=O)[C@H](CCCCN)NC(=O)[C@H](CCCNC(=N)N)NC(=O)CNC(=O)[C@H](Cc1ccc(O)cc1)NC(=O)CCCC[C@@H]1SC[C@@H]2NC(=O)N[C@@H]21)[C@@H](C)O)C(=O)O [Peptide 1839] (Biotin-YGRKKRRQRRRSRTDRKYQI-OH; C-terminus assumed)
ODmax (450 nm) (INADL d3 [1]): 1.60
ODmax (450 nm) (ZO-1 d2 [3]): 2.50
POZ domain bound (INADL d3 [5]): INADL D3
POZ domain bound (RIM2 d1): RIM2 D1

C[C@H](NC(=O)[C@H](Cc1c[nH]c2ccccc12)NC(=O)[C@H](Cc1ccc(O)cc1)NC(=O)[C@H](CCCCN)NC(=O)[C@H](CCCNC(=N)N)NC(=O)[C@H](CC(=O)O)NC(=O)[C@@H](NC(=O)[C@H](CCCNC(=N)N)NC(=O)[C@H](CO)NC(=O)[C@H](CCCNC(=N)N)NC(=O)[C@H](CCCNC(=N)N)NC(=O)[C@H](CCCNC(=N)N)NC(=O)[C@H](CCC(N)=O)NC(=O)[C@H](CCCNC(=N)N)NC(=O)[C@H](CCCNC(=N)N)NC(=O)[C@H](CCCCN)NC(=O)[C@H](CCCCN)NC(=O)[C@H](CCCNC(=N)N)NC(=O)CNC(=O)[C@H](Cc1ccc(O)cc1)NC(=O)CCCC[C@@H]1SC[C@@H]2NC(=O)N[C@@H]21)[C@@H](C)O)C(=O)O [Peptide 1832] (Biotin-YGRKKRRQRRRSRTDRKYWA-OH; C-terminus assumed)
ODmax (450 nm) (INADL d3 [1]): 0.60
ODmax (450 nm) (ZO-1 d2 [3]): 2.10
POZ domain bound (INADL d3 [5]): INADL D3
POZ domain bound (RIM2 d1): RIM2 D1
POZ domain bound (ZO-1 d2 [4]): ZO-1 D2
